The text below walks through data of ChEMBL document CHEMBL5143696, “Discovery of novel benzothiophene derivatives as potent and narrow spectrum inhibitors of DYRK1A and DYRK1B” (Bioorg Med Chem Lett, 2022).

Experiment [1] deals with T1, Dual specificity tyrosine-phosphorylation-regulated kinase 1A (Homo sapiens, UniProt Q13627). As to the kind of experiment: Inhibition of human DYRK1A incubated for 90 mins in presence of ATP by Z-LYTE based FRET assay.
The target of experiment [2] is T2, Dual specificity tyrosine-phosphorylation-regulated kinase 1B (Homo sapiens, UniProt Q9Y463). As to the kind of experiment: Inhibition of human DYRK1B incubated for 130 mins in presence of ATP by ADP-Glo kinase assay. For orientation: ADP-Glo turns the ADP formed in a reaction into a luminescent signal.
Target sequence in this assay (Q9Y463 whole entry, the tested form may be a part): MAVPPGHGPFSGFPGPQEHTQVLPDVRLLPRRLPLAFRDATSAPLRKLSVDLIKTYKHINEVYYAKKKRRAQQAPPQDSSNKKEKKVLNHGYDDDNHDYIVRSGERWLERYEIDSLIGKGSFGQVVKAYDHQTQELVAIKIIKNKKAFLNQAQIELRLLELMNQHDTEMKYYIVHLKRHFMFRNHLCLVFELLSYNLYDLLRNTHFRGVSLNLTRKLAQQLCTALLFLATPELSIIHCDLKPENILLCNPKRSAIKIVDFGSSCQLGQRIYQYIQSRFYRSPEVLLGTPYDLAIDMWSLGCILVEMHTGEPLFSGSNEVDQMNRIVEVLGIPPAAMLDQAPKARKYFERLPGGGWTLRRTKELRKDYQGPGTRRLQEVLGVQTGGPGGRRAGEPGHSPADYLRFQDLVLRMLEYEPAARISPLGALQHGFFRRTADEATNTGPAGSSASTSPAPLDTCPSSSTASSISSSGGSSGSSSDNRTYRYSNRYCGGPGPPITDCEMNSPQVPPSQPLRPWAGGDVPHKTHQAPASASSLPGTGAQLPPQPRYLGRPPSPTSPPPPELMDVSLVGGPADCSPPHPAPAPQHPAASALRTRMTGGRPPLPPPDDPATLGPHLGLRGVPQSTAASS
Experiment [3] concerns the target T1, Dual specificity tyrosine-phosphorylation-regulated kinase 1A. As to the kind of experiment: Inhibition of NanoLuc-fused human DYRK1A expressed in HEK293 cells using Nano-Glo as substrate incubated for 2 hrs by NanoBRET assay. In kind it is cell-based. A general note: BRET reads energy transfer from a luciferase to a nearby fluorophore.
The target in experiment [4] is T2, Dual specificity tyrosine-phosphorylation-regulated kinase 1B. As to the kind of experiment: Inhibition of NanoLuc-fused human DYRK1B expressed in HEK293T cells using Nano-Glo as substrate incubated for 2 hrs by NanoBRET assay. Type of experiment: cell-based.
Target sequence in this assay (Q9Y463 whole entry, the tested form may be a part): as above
In experiment [5] the test system is HeLa. As to the kind of experiment: Cytotoxicity against human HeLa cells assessed as reduction in cell viability at 30 uM incubated for 24 hrs in presence of staurosporine by MTT assay. Type of experiment: functional, cell-based.
In experiment [6] the target is T3, Serine/threonine-protein kinase PRP4 homolog (Homo sapiens, UniProt Q13523). Put plainly: Inhibition of DNA-tagged human PRP4 expressed in Escherichia coli incubated for 1.5 hrs by KINOMEscan assay.
T3 sequence (Q13523 whole entry): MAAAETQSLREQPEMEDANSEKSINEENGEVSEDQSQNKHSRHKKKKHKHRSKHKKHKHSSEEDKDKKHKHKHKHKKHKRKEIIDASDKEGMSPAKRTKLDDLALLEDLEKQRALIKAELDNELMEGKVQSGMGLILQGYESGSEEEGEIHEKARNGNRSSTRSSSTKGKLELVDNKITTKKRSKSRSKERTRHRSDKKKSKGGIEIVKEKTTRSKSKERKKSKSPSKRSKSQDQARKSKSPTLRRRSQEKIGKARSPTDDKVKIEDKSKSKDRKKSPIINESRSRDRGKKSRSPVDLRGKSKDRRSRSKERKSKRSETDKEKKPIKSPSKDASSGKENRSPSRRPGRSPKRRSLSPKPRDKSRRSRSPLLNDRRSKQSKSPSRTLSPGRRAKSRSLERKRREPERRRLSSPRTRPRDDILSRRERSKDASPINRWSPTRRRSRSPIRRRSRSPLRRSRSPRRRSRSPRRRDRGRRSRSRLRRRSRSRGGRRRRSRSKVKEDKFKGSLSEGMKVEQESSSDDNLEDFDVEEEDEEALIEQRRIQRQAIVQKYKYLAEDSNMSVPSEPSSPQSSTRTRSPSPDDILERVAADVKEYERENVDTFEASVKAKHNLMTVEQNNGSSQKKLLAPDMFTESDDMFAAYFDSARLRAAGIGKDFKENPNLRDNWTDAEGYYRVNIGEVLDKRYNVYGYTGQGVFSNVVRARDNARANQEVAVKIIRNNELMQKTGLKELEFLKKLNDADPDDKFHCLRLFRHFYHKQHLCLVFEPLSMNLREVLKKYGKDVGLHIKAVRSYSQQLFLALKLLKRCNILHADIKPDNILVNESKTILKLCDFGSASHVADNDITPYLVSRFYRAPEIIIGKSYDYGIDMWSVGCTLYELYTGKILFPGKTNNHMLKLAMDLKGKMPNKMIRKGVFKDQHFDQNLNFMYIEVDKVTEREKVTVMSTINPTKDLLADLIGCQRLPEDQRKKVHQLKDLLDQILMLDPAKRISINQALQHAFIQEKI
For experiment [7], the system named is HeLa. Put plainly: Cytotoxicity against human HeLa cells assessed as cell viability at 30 uM incubated for 24 hrs by MTT assay. To be noted: read-out: Activity. Type of experiment: functional. A general note: Tetrazolium assays rely on reduction of a dye to a coloured formazan, in cell work by metabolically active cells.
Experiment [8] has as its target T3, Serine/threonine-protein kinase PRP4 homolog. As to the kind of experiment: Inhibition of human PRP4 using casein as substrate at 1 uM incubated for 120 mins in presence of [gamma-33P-ATP] by radiometric scintillation assay.
For experiment [9], the target named is Cyclin-dependent kinase 16 (Homo sapiens) (UniProt Q00536). Put plainly: Inhibition of His6-tagged full length human recombinant CDK16 expressed in Sf9 insect cells at 1 uM incubated for 60 mins in presence of [gamma33P]ATP by microplate scintillation counter relative to control.
Cyclin-dependent kinase 16 (Homo sapiens), sequence (Q00536 whole entry): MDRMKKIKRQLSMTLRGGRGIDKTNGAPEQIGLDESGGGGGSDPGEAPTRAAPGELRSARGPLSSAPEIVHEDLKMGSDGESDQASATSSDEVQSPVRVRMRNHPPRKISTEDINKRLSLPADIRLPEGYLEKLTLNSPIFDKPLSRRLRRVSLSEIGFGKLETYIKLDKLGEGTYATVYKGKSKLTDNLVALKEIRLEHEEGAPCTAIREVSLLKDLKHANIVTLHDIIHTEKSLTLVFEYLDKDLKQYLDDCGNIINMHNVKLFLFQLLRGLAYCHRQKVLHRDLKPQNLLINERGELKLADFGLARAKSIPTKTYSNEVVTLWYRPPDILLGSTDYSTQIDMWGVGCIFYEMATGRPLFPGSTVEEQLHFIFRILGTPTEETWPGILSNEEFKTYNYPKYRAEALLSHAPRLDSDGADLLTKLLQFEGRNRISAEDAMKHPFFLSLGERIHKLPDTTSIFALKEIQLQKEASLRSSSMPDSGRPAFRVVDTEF
For experiment [10], the target named is Serine/threonine-protein kinase pim-1 (Homo sapiens) (UniProt P11309). As to the kind of experiment: Inhibition of His6-tagged full length human recombinant PIM1 expressed in Sf9 insect cells at 1 uM incubated for 60 mins in presence of [gamma33P]ATP by microplate scintillation counter relative to control.
Serine/threonine-protein kinase pim-1 (Homo sapiens), sequence (P11309 whole entry, looked up): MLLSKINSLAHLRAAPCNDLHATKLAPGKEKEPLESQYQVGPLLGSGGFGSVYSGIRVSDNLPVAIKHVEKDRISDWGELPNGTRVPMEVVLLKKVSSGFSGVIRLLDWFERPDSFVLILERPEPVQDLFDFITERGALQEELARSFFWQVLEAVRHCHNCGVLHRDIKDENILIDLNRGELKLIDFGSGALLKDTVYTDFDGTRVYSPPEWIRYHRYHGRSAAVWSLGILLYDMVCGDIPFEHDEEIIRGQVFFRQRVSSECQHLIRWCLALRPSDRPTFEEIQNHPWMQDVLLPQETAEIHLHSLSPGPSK
Experiment [11] concerns the target Cyclin-dependent kinase 8 (Homo sapiens) (UniProt P49336). Put plainly: Inhibition of N-terminal GST-tagged full length human recombinant CDK8 expressed in Sf9 insect cells at 1 uM incubated for 60 mins in presence of [gamma33P]ATP by microplate scintillation counter relative to control.
Experiment [12] addresses T1, Dual specificity tyrosine-phosphorylation-regulated kinase 1A. Put plainly: Inhibition of human DYRK1A expressed in Sf9 insect cells at 1 uM incubated for 60 mins in presence of [gamma33P]ATP by microplate scintillation counter relative to control.
Experiment [13] concerns the target Cyclin-dependent kinase 6 (Homo sapiens) (UniProt Q00534). Put plainly: Inhibition of N-terminal GST-tagged full length human recombinant CDK6 expressed in Sf9 insect cells at 1 uM incubated for 60 mins in presence of [gamma33P]ATP by microplate scintillation counter relative to control.
Experiment [14] deals with Mitogen-activated protein kinase 7 (Homo sapiens) (UniProt Q13164). Put plainly: Inhibition of N-terminal recombinant human ERK5 expressed in Sf9 insect cells at 1 uM incubated for 60 mins in presence of [gamma33P]ATP by microplate scintillation counter relative to control.
Experiment [15] has as its target T4, Inhibitor of nuclear factor kappa-B kinase subunit alpha (Homo sapiens) (UniProt O15111).
T4 sequence (whole entry): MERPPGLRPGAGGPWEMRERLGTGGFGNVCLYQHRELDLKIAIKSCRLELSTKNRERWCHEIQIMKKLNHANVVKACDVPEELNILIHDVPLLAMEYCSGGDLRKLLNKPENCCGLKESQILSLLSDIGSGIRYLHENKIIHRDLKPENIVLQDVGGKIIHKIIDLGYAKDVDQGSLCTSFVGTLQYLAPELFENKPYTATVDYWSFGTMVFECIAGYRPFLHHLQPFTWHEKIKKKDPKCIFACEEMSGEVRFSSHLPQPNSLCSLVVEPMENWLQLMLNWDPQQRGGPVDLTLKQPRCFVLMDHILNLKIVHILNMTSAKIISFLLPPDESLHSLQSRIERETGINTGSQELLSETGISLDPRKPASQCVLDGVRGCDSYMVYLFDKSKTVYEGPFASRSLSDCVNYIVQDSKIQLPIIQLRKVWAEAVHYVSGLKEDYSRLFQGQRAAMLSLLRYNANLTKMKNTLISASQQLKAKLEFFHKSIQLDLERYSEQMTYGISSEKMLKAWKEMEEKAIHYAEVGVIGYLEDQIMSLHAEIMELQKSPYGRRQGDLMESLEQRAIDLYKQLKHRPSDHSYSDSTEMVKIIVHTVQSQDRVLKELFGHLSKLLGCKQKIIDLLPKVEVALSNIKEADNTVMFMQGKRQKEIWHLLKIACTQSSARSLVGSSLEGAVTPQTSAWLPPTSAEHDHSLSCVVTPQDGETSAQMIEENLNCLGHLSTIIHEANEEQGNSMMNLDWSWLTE
Put plainly: Inhibition of full length human recombinant IKKalpha expressed in baculovirus infected Sf9 cells at 1 uM incubated for 60 mins in presence of [gamma33P]ATP by microplate scintillation counter relative to control.

The target in experiment [16] is T5, Serine/threonine-protein kinase TAO3 (Homo sapiens) (UniProt Q9H2K8).
T5 sequence (whole entry): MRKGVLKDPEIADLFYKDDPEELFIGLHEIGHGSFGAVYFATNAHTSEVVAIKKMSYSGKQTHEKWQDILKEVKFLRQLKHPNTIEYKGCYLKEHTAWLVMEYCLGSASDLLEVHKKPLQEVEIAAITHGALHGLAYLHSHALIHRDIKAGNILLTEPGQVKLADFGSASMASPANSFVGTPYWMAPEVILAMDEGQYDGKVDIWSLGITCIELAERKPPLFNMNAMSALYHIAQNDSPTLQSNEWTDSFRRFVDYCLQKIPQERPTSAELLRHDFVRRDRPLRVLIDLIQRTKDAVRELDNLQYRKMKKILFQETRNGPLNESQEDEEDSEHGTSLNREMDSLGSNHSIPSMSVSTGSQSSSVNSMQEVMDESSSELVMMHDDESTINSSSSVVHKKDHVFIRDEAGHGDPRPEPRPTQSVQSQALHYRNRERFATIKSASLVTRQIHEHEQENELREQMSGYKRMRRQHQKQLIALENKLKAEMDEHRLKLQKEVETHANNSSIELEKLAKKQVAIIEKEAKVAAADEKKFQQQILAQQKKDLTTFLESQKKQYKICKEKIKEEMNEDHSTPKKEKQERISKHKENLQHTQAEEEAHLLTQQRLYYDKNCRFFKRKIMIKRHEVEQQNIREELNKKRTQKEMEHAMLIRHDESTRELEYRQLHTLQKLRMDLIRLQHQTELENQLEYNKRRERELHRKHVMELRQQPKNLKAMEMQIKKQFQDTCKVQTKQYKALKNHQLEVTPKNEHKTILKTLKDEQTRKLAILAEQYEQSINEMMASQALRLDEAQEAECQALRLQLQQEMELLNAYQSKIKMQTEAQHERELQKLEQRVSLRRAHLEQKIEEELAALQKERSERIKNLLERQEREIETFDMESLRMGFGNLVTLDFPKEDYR
As to the kind of experiment: Inhibition of full length human recombinant TAOK3 expressed in baculovirus infected Sf9 cells at 1 uM incubated for 60 mins in presence of [gamma33P]ATP by microplate scintillation counter relative to control.

Experiment [17] can be described thus: Inhibition of His6-tagged full length human recombinant CDK11 expressed in Sf9 insect cells at 1 uM incubated for 60 mins in presence of [gamma33P]ATP by microplate scintillation counter relative to control.
The target in experiment [18] is Cyclin-dependent kinase 4 (Homo sapiens) (UniProt P11802). As to the kind of experiment: Inhibition of N-terminal GST-tagged full length human recombinant CDK4 expressed in Sf9 insect cells at 1 uM incubated for 60 mins in presence of [gamma33P]ATP by microplate scintillation counter relative to control.
Cyclin-dependent kinase 4 (Homo sapiens), sequence (P11802 whole entry): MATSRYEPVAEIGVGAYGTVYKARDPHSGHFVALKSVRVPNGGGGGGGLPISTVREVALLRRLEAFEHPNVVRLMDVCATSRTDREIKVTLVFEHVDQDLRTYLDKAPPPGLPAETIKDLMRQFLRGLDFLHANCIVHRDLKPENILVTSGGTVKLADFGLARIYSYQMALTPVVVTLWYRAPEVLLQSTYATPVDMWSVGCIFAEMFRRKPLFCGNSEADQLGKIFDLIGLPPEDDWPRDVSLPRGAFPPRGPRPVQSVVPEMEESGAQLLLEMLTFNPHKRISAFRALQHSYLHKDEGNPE
Experiment [19] concerns the target Serine/threonine-protein kinase pim-3 (Homo sapiens) (UniProt Q86V86). As to the kind of experiment: Inhibition of His6-tagged full length human recombinant PIM3 expressed in Sf9 insect cells at 1 uM incubated for 60 mins in presence of [gamma33P]ATP by microplate scintillation counter relative to control.
Experiment [20] has as its target Cyclin-dependent kinase 5 (Homo sapiens) (UniProt Q00535). As to the kind of experiment: Inhibition of N-terminal GST-tagged full length human recombinant CDK5 expressed in Sf9 insect cells at 1 uM incubated for 60 mins in presence of [gamma33P]ATP by microplate scintillation counter relative to control.
Experiment [21] has as its target T2, Dual specificity tyrosine-phosphorylation-regulated kinase 1B. As to the kind of experiment: Inhibition of human DYRK1B expressed in Sf9 insect cells at 1 uM incubated for 60 mins in presence of [gamma33P]ATP by microplate scintillation counter relative to control.
Target sequence in this assay (Q9Y463 whole entry, looked up, the tested form may be a part): as the sequence (Q9Y463 whole entry, the tested form may be a part) above

pIC50, pKi: −log10 of the molar value. The source made the active and inactive calls. No cut-off for these calls is given here.

Cyclin-dependent kinase 6 (Homo sapiens), sequence (Q00534 whole entry): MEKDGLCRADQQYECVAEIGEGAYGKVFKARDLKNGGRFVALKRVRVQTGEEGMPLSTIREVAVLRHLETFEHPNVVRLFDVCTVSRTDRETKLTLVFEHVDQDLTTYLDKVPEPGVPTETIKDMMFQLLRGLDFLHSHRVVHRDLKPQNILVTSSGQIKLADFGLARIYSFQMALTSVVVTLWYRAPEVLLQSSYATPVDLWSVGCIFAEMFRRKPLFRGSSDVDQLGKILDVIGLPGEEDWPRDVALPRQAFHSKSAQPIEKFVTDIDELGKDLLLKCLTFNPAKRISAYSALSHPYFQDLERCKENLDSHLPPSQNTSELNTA
Cyclin-dependent kinase 8 (Homo sapiens), sequence (P49336 whole entry): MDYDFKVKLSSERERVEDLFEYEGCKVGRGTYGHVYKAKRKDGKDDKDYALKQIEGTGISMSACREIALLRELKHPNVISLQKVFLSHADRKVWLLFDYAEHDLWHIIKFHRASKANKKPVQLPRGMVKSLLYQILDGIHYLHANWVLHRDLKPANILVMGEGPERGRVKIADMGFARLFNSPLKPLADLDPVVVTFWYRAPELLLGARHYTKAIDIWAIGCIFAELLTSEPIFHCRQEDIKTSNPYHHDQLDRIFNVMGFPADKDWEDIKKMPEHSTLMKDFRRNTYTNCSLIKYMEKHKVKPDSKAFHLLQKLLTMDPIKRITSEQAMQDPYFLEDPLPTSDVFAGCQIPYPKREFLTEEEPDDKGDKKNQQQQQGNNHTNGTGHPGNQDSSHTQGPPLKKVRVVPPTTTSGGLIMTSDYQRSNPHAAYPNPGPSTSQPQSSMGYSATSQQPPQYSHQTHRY
Cyclin-dependent kinase 5 (Homo sapiens), sequence (Q00535 whole entry, looked up): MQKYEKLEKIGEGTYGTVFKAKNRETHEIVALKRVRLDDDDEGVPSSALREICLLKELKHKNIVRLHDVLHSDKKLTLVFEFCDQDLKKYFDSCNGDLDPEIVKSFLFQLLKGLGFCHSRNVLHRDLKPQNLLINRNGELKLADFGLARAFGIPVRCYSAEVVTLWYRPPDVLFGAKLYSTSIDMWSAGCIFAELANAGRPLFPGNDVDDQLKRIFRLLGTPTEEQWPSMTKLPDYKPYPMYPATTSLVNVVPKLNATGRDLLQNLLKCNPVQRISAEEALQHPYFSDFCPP

One may read the pKi as the Ki on a negative log10 scale, so that one unit is a factor of ten. For the compound `NC(=O)c1cc2c(-c3ccc(C(=O)NCc4cccc(O)c4)s3)c(Cl)ccc2s1`, the negative-log Ki (pKi) was 6.98 in [1] and 5.95 in experiment [2].
The corresponding values for `NC(=O)c1cc2c(-c3ccc(C(=O)NC4CCOCC4)s3)cccc2s1` are 6.75 and 5.96.
The corresponding values for `NC(=O)c1cc2c(-c3ccc(C(=O)NCC4CC4)s3)cccc2s1` are 7.02 and 6.01.
For `NC(=O)c1cc2c(-c3ccc(C(=O)NCCn4cc(CO)nn4)s3)cccc2s1`, in that order: 6.93 and 6.35.
For orientation: pIC50 means the negative decadic logarithm of the IC50, by convention in mol/L. Take `NC(=O)c1cc2c(-c3ccc(C(=O)NCc4ccc(N)cc4)s3)cccc2s1`: the figures for the pIC50 in experiment [3] and in [4] were 5.57 and 5.44, respectively. Further, the pKi in experiment [1] is 7.57; in [2] it was 6.73.
Take `NC(=O)c1cc2c(-c3ccc(C(=O)NCc4ccccc4O)s3)cccc2s1`: the pIC50 in experiment [3] was 5.36; in experiment [4] it was 5.47. Also, the pKi is 8.00 in experiment [1] and 7.19 in [2].
On to `NC(=O)c1cc2c(-c3ccc(C(=O)NCc4ccccc4O)s3)c(Cl)ccc2s1`, for which the negative logarithm of the Ki (pKi) in experiment [1] was 7.07; in experiment [2] it was 5.93.
On to `NC(=O)c1cc2c(-c3cc(N)c(C(=O)NC4CC4)s3)cccc2s1`, for which the figures for the negative logarithm of the Ki (pKi) in experiment [1] and in [2] were 7.05 and 6.09, respectively.
The corresponding values for `NC(=O)c1cc2c(-c3ccc(C(=O)NC4CC4)s3)cccc2s1` are 6.80 and 6.17.
As usually defined, the inhibition is the relative decrease from the control value, in per cent. Regarding `NC(=O)c1cc2c(-c3ccc(C(=O)NCc4ccccc4N)s3)cccc2s1`, the figures for the negative-log IC50 (pIC50) in experiment [3] and in experiment [4] were 5.96 and 6.10, respectively. Also, in the experiment with HeLa [5], the result was Active. The figures for the negative logarithm of the Ki (pKi) in experiment [6], in [1] and in [2] were 5.89, 7.17 and 6.62, respectively. Also, the viability at 30 µM in the experiment with HeLa [7] is above 75%. In experiment [8], the inhibition came out at 38%.
For the compound `NC(=O)c1cc2c(-c3ccc(C(=O)NCc4cccc(Cl)c4)s3)cccc2s1`, the negative logarithm of the Ki (pKi) in experiment [1] was 6.44; in experiment [2], 5.36.
With `NC(=O)c1cc2c(-c3ccc(C(=O)NCc4ccccc4N)s3)c(Cl)ccc2s1`, the negative logarithm of the IC50 (pIC50) in experiment [3] is 5.77; in [4] it was 6.15. In addition, the pKi in experiment [1] was 7.44; in [2], 6.24.
For `NC(=O)c1cc2c(-c3ccc(C(=O)NCc4ccccc4)s3)cccc2s1`, in that order: 5.34, 5.37, 7.24 and 6.56.
Take `NC(=O)c1cc2c(-c3ccc(C(=O)NCc4cccc(N)c4)s3)cccc2s1`: the pKi in [1] was 6.92; in experiment [2], 6.18.
The corresponding values for `NC(=O)c1cc2c(-c3ccc(C(=O)NCc4cccc(O)c4)s3)cccc2s1` are 7.14 and 6.43.
The corresponding values for `NC(=O)c1cc2c(-c3ccc(C(=O)NCc4cccc(N)c4)s3)c(Cl)ccc2s1` are 7.03 and 5.84.
For `NC(=O)c1cc2c(-c3ccc(C(=O)N[C@H](CO)Cc4ccccc4)s3)cccc2s1`, in that order: 7.00 and 6.14.
As to `NC(=O)c1cc2c(-c3ccc(C(=O)NCc4ccnc(Cl)c4)s3)cccc2s1`, the pIC50 in [3] is 5.70; in experiment [4] it was 5.74. In addition, the inhibition in experiment [9], in experiment [10], in experiment [11], in experiment [12], in experiment [13] and in experiment [14] was above 35% throughout. Moreover, the inhibition in experiment [15], in experiment [16], in experiment [17], in [18], in experiment [19] and in experiment [20] was above 35% each time. The inhibition in experiment [21] was above 35%. The negative-log Ki (pKi) is 7.07 in experiment [1] and 6.19 in experiment [2].
As to `NC(=O)c1cc2c(-c3ccc(C(=O)NCc4cccc(N)c4)s3)ccc(F)c2s1`, the figures for the negative logarithm of the Ki (pKi) in [1] and in experiment [2] were 6.31 and 5.64, respectively.
